Consider one molecule from US9375411B2, “Uses and methods for the treatment of liver diseases or conditions” (Verlyx Pharma Inc., priority 2012, dated 2016).

One data set relates to NASH-like pathology. The data set is described as follows: Diabetic and high-fat diet model (STAM mice, NASH-like pathology). The class given is in vivo, C57BL/6 mice. Conditions: high dose group (25 mg/kg IP three times a week, 6-9 wks). On the procedure: In this experiment, NASH-like pathology is induced in C57BL/6 mice by a single subcutaneous injection of 200 ug streptozotocin 2 days after birth and feeding with high fat diet (HFD, 57 kcal % fat, cat#: HFD32, CLEA Japan, Japan) after 4 weeks of age (STAM mice). Vehicle or pentamidine treatment was administered three times a week from 6 to 9 weeks of age. Vehicle (0.9% NaCl) and PENTAMIDINE were administered by intraperitoneal route in a volume of 10 mL/kg.

A short description of the next data set: in vivo. Conditions: female, Fox Chase SCID CB17, mouse, oral.
The test system of data set [1] is GalN/LPS fulminant liver injury. Description: GalN/LPS fulminant liver injury model. It counts as in vivo. Conditions: mice; for Serum ALT / Serum ALT levels reduced relative to PBS vehicle: 6.5 hours. How it is done:
To evaluate the anti-inflammatory, anti-TNFα and hepato-protective properties of PENTAMIDINE, a Galactosamine/Liposaccharide (GalN/LPS) fulminant liver injury model was used.
Three independent experiments on mice untreated or pretreated with vehicle, compound PENTAMIDINE (isethionate salt) at doses of 25 and 40 mg/kg. PENTAMIDINE is dosed IP 30-minutes prior to the co-treatment with subtoxic doses of hepatotoxin GalN and immune stimulant LPS. Mice were sacrificed at 6.5 hours after GalN/LPS for analysis. The analysis of alanine transaminase (ALT) serum levels and histological observations allow the evaluation of the hepato-protective, anti-TNF-α, anti-inflammatory and/or anti-fibrotic activity.
To evaluate the anti-inflammatory, anti-TNFα and hepatoprotective properties of different pentamidine salt such as pentamidine bis-HCl (penta-HCL) and pentamidine tosylate (penta-Tos), a Galactosamine/Liposaccharide (GalN/LPS) fulminant liver injury model was used.
Pentamidine HCl and Tosylate were dosed IP 30-minutes prior to the co-treatment with subtoxic doses of hepatotoxin GalN and immune stimulant LPS. Mice were sacrificed at 6.5 hours after GalN/LPS for analysis. The analysis of alanine transaminase (ALT) serum levels and histological observations allow the evaluation of the hepato-protective, anti-TNF-α, anti-inflammatory and/or anti-fibrotic activity. Results

The mark [2] stands for this setting: IP 25 mg/kg 30 minutes prior to GalN/LPS.
[3] abbreviates: IP 40 mg/kg 30 minutes prior to GalN/LPS.

Turning to `N=C(N)c1ccc(OCCCCCOc2ccc(C(=N)N)cc2)cc1` [pentamidine, pentamidine bis(2-hydroxyethanesulfonate)], in the data set with NASH-like pathology, the Liver weights entry is listed as “close to normal mice control values” and the “fibrosis formation (Sirius Red staining)” value is reported as “trend for reduction”. For the same molecule, in “in vivo”, the bioavailability – broadly, dose-corrected exposure relative to a reference, in per cent – is about 1%. Also, the “Numbers of TUNEL-positive cells per high power field in the livers” value in data set [1] (GalN/LPS, P<0.0002 as compared to PBS+GalN/LPS) is listed as “significantly decreased”. Moreover, in data set [1] (setting [2]), the “Serum ALT” value is 402+/−105 and the “Serum ALT levels reduced relative to PBS vehicle” value is recorded as 93%. Further, in data set [1] (setting [3]), the “Serum ALT” value is listed as 177+/−44 and the “Serum ALT levels reduced relative to PBS vehicle” value came to 97%.
